Measurements published in patent US20110293525A1, “TUMOR STEM CELLS” (BOARD OF TRUSTEES OF THE UNIVERSITY OF ILLINOIS, priority 2010, published 2011).

Columns and labels:
[1] = system: A549 parent and A549-HNO cells
Protocol: (§1) Exposure to Radicals: Cells were exposed to varying concentrations of hydrogen peroxide to determine if the adapted cells were resistant to high free radical environments generated by oxygen-based free radicals. Parent and adapted cells were seeded (100 μL) into 96-well microtiter plates in the appropriate media (parent cells in media without NO donor, HNO cells in media supplemented with 600 μM DETA-NONOate) and incubated overnight, reaching approximately 70% confluency by the following day. Cells were treated with varying concentrations (0-1.78 mM) of hydrogen peroxide (30% w/w solution, Sigma H1009, Sigma-Aldrich Corp., St. Louis, Mo., USA) and incubated at 37° C. for an additional 24 h. MTT cell viability/proliferation assays were then performed, as described above. A minimum of four replicate wells were measured for each cell line at each concentration, and assays were repeated in triplicate. Data were normalized against the mean of the untreated control cells, and values lying outside of two standard deviations were removed. Data were plotted as the mean normalized absorbance±standard error.

[2] = system: BT-20 parent and HNO cells
Protocol: as §1

[3] = system: HNSCC parent and HNO cells; settings: 24 h exposure, HNSCC cell lines
Protocol: as §1

[4] = system: Hs578t parent and HNO cells
Protocol: as §1

[5] = system: MCF-7 parent and HNO cells
Protocol: as §1

[6] = system: SCC016 parent and HNO cells
Protocol: as §1

[7] = system: SCC040 parent and HNO cells
Protocol: as §1

[8] = system: SCC056 parent and HNO cells
Protocol: as §1

[9] = system: SCC114 parent and HNO cells
Protocol: as §1

[10] = system: SCC116 parent and HNO cells
Protocol: as §1

[11] = system: T-47D parent and HNO cells
Protocol: as §1

[12] = system: four breast adenocarcinoma cell line pairs, parent and HNO cells; settings: 24 h exposure, T-47D, Hs578T, BT-20, MCF-7 pairs
Protocol: as §1

[13] = system: tumor cell lines; assay: MTT viability after 72 h exposure to 0-600 μM DETA-NONOate; assay type: cell-based; settings: doses 0-600 μM
Protocol: (§2) Viability of Long Term NO Adapted Cultures: Cells from each of the cell lines were seeded (100 μL) into 96-wellmicrotiter plates and grown for 24 h, to ˜70% confluency. The media was then removed, and the cells were treated with 100-μL media containing varying concentrations (0-600 μM) of DETA-NONOate. Following an additional 72-h incubation period, cell proliferation/viability was assessed using the 3-(4,5-dimethylthiazol-2-yl)-2,5-diphenyltetrazolium bromide (MTT) assay. Media was removed from each well, and 100 μL of 2 mg/mL of MTT (Sigma-Aldrich Corp., St. Louis, Mo. USA) in phosphate buffer saline (PBS) was added. Plates were then placed in an incubator (37° C.) for 5 h, during which time purple formazan crystals formed upon the reaction of the MTT with mitochondrial dehydrogenases of viable cells. Following the incubation period, the MTT solution was removed, and 100 μL of dimethyl sulfoxide (DMSO) was added. The absorbance of the resulting purple solution in each well was read (540 nm) using a SpectraMax® Plus 384 spectrophotometer (Molecular Devices, Inc., Sunnyvale, Calif., USA). Each experiment was independently conducted a minimum of three times, and a minimum of four replicate wells were tested for each cell line at each concentration. Data were normalized to the mean optical density of the untreated control cells. […]

[14] = system: five HNSCC cell lines, parent cells; assay: MTT viability/proliferation in media containing 600 μM DETA-NONOate; assay type: cell-based, human
Protocol: as §2

[15] = system: parent A549 cells; assay: as above; assay type: cell-based, human; settings: 600 μM donor, 72 hour period
Protocol: as §2

[16] = system: LP07 parent cells; assay: MTT viability/proliferation in media containing 300 μM DETA-NONOate; assay type: cell-based, mouse; settings: LP07 cell line
Protocol: as §2

[17] = buffer, pH 7.4; cited from earlier work

Compound | concentrations at which both parent and HNO cells were killed ([1]; 24 h exposure, A549 and A549-HNO) [mM] | H2O2 Resistance: highest concentration of H2O2 that the HNO cell lines grow in which the parent cell lines do not survive ([1]; A549) [mM] | H2O2 Resistance: highest concentration of H2O2 that the HNO cell lines grow in which the parent cell lines do not survive [2] [mM] | concentrations that killed both parent and HNO cells [3] | H2O2 Resistance: highest concentration of H2O2 that the HNO cell lines grow in which the parent cell lines do not survive [4] [mM] | H2O2 Resistance: highest concentration of H2O2 that the HNO cell lines grow in which the parent cell lines do not survive [5] [mM] | H2O2 Resistance: highest concentration of H2O2 that the HNO cell lines grow in which the parent cell lines do not survive [6] [mM] | H2O2 Resistance: highest concentration of H2O2 that the HNO cell lines grow in which the parent cell lines do not survive [7] [mM] | H2O2 Resistance: highest concentration of H2O2 that the HNO cell lines grow in which the parent cell lines do not survive [8] [mM] | H2O2 Resistance: highest concentration of H2O2 that the HNO cell lines grow in which the parent cell lines do not survive [9] [mM] | H2O2 Resistance: highest concentration of H2O2 that the HNO cell lines grow in which the parent cell lines do not survive [10] [mM] | H2O2 Resistance: highest concentration of H2O2 that the HNO cell lines grow in which the parent cell lines do not survive [11] [mM] | concentrations at which both parent and HNO cells were killed [12] [µM] | minimum concentration studied that was completely lethal to the cells [13] [µM] | survival of parent cells in media containing the NO donor [14] | survival of parent cells placed directly into HNO environment [15] | survival of parent cells in media containing the NO donor [16] | half-life [17]
OO [H2O2, hydrogen peroxide] | ≥ 0.055 | 0.055 | 0.0069 | above 55 μM | 0.0069 | 0.014 | 0.028 | 0.028 | 0.028 | 0.55 | 0.028 | 0.028 | ≥ 110 | – | – | – | – | –
(Z)-1-[2-(2-aminoethyl)-N-(2-ammonioethyl) amino]diazen-1-ium-1,2-diolate [DETA-NONOate] | – | – | – | – | – | – | – | – | – | – | – | – | – | 600 | completely killed | not able to survive | Analogous results | approximately 24 h
